Assay results: patent US9758524B2, “4-imidazopyridazin-1-yl-benzamides as Btk inhibitors” (Merck Sharp & Dohme B.V., priority 2011, dated 2017)
Like-named read-outs stand apart in the source and are kept apart here.

Key:
[1] = molecular target: Src enzyme (Homo sapiens (Human), UniProt P12931); assay: Src enzyme activity (IMAP fluorescence polarization assay); settings: read-out: EC50 Src activity values; IMAP, 60 min pre-incubation, 4 μM ATP
[2] = molecular target: Btk enzyme (His-Btk) (Homo sapiens (Human), UniProt Q06187); assay: Btk enzyme activity (IMAP fluorescence polarization assay)
Protocol: Inhibition of kinase activity can be measured using the Immobilized Metal Assay for Phosphochemicals (IMAP) assay. IMAP is a homogeneous fluorescence polarization (FP) assay based on affinity capture of phosphorylated peptide substrates. IMAP uses fluorescein-labeled peptide substrates that, upon phosphorylation by a protein kinase, bind to so-called IMAP nanoparticles, which are derivatized with trivalent metal complexes.
Final peptide substrate concentration in assay is 50 nM.

[3] = molecular target: Lck enzyme (Homo sapiens (Human), UniProt P06239); assay: Lck enzyme activity (IMAP fluorescence polarization assay)
[4] = molecular target: Lyn enzyme (Homo sapiens (Human), UniProt P07948); assay: Lyn enzyme activity (IMAP fluorescence polarization assay)
[5] = molecular target: FynT enzyme (Homo sapiens (Human), UniProt P06241); assay: FynT enzyme activity (IMAP fluorescence polarization assay); format: biochemical; settings: 60 min pre-incubation, 0.2 μM ATP
In short: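 Human FynT pre-incubated with compounds 60 min at room temperature, then reacted 2 h at room temperature with fluorescein-labelled p34cdc2 peptide (100 nM final). Stopped with IMAP binding solution; fluorescence polarization read after 60 min. Activity as % of ±ATP control difference; EC50 by curve fitting.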

[6] = IMAP, 60 min pre-incubation, 5 μM ATP, bin bound in nM
[7] = read-out: EC50 Lck activity values, IMAP, 60 min pre-incubation, 6 μM ATP, bin bound in μM
[8] = read-out: EC50 Lyn activity values, 60 min pre-incubation, 2 μM ATP, bin bound in μM
[9] = read-out: EC50 Btk activity values, IMAP, 60 min pre-incubation, 5 μM ATP, bin bound in nM

Sequence of Src enzyme (P12931 whole entry, looked up): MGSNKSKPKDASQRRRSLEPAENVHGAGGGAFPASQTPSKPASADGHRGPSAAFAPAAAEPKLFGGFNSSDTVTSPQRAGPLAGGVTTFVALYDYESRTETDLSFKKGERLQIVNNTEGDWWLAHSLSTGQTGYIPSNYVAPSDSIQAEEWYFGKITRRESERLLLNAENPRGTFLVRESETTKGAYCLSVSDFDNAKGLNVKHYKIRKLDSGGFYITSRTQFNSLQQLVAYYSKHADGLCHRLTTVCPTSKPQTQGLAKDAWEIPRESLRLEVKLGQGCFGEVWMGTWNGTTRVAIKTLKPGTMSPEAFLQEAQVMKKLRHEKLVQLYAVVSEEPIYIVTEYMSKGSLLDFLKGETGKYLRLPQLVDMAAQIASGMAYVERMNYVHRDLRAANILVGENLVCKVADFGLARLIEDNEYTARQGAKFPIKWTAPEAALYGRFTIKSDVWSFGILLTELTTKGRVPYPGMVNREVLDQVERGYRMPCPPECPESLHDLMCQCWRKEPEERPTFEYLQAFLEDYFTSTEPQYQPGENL
Sequence of FynT enzyme (P06241 other isoform, or with tags, fused parts or gaps): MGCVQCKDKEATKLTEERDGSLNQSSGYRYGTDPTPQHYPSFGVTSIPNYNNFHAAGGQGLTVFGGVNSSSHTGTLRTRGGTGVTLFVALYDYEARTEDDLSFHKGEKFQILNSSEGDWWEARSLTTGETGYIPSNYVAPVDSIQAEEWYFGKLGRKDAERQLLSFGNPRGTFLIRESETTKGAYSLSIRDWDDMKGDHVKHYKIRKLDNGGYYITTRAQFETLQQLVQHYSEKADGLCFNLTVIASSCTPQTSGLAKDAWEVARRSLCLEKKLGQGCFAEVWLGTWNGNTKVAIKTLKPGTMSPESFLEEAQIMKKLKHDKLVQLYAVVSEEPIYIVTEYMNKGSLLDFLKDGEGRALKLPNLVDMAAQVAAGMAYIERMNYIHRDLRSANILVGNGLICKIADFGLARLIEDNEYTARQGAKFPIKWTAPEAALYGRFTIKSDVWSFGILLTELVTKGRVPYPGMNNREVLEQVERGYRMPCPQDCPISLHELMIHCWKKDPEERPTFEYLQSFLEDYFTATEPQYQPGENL
Sequence of Lck enzyme (P06239 whole entry): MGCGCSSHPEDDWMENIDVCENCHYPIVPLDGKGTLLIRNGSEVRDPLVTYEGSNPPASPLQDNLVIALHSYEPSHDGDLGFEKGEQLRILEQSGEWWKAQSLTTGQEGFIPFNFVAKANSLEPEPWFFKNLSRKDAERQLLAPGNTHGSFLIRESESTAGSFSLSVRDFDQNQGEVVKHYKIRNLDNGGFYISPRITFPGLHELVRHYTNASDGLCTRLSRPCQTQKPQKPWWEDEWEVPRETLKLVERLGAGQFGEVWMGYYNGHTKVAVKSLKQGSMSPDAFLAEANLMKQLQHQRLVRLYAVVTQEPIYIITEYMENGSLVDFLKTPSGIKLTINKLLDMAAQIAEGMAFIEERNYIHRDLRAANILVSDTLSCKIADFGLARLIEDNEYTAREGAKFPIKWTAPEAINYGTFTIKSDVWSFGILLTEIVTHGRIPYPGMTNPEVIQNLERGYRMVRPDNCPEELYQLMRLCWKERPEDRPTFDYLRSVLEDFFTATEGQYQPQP
Sequence of Lyn enzyme (P07948 whole entry): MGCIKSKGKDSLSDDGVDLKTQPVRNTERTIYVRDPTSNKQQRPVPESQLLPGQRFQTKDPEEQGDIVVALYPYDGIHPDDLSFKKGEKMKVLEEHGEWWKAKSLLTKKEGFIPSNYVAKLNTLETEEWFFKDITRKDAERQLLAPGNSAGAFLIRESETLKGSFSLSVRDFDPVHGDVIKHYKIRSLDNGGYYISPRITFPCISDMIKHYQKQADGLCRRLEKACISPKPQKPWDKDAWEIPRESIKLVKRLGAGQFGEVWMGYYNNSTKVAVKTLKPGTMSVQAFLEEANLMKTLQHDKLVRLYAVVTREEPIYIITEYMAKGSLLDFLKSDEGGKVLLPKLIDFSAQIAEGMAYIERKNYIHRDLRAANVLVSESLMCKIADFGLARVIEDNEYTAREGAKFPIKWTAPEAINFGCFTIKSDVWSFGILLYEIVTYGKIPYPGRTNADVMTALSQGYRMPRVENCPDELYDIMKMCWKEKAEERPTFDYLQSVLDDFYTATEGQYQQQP
Sequence of Btk enzyme (His-Btk) (Q06187 whole entry): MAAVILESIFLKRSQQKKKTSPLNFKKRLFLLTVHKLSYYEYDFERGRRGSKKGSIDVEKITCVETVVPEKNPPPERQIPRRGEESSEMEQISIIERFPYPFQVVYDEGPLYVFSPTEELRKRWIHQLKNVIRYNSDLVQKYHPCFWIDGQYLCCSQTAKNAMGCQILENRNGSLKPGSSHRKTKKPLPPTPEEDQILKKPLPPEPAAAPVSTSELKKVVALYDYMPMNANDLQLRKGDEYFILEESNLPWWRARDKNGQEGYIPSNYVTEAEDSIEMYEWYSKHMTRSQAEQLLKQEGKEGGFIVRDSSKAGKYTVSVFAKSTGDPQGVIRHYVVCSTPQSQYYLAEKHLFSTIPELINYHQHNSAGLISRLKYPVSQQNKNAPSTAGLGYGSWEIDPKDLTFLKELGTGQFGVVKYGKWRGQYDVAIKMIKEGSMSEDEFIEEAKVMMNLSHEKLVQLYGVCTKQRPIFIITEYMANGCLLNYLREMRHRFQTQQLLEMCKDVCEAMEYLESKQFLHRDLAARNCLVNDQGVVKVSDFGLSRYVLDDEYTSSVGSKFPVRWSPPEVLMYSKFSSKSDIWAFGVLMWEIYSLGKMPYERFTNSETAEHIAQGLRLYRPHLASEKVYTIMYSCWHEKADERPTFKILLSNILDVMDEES

Compound	EC50 [1] [nM]	EC50 [2] [nM]	EC50 Btk activity values [2, 6] [nM]	EC50 [3, 7] [µM]	EC50 [4, 8] [µM]	EC50 [5] [nM]	EC50 [2, 9] [nM]	EC50 Btk activity values ([2]; IMAP, 60 min pre-incubation, 5 μM ATP, bin bound in μM) [nM]	EC50 [3] [µM]	EC50 Lck activity values ([3]; IMAP, 60 min pre-incubation, 6 μM ATP, bin bound in μM) [µM]	EC50 ([4]; EC50 Lyn activity values, 60 min pre-incubation, 2 μM ATP, bin bound in μM) [µM]
CC#CC(=O)N1CCC[C@H]1c1nc(-c2ccc(C(=O)Nc3ccccn3)c(OC)c2)c2c(N)nccn12 [Example 99, (S)-4-(8-amino-3-(1-but-2-ynoylpyrrolidin-2-yl)imidazo[1,5-a]pyrazin-1-yl)-2-methoxy-N-(pyridin-2-yl)benzamide]	≥ 1000	10 to 100	<100	≥ 1	≥ 1	≥ 1000					
C=CC(=O)N[C@@H](C)c1nc(-c2ccc(C(=O)Nc3ccccn3)cc2)c2c(N)nccn12 [Example 100, (S)-4-(3-(1-acrylamidoethyl)-8-aminoimidazo[1,5-a]pyrazin-1-yl)-N-(pyridin-2-yl)benzamide]	≥ 1000			≥ 1	≥ 1	≥ 1000	< 10				
C=CC(=O)N1CCC[C@H]1c1nc(-c2ccc(C(=O)Nc3nccs3)cc2)c2c(N)nccn12 [Example 101, (S)-4-(3-(1-acryloylpyrrolidin-2-yl)-8-aminoimidazo[1,5-a]pyrazin-1-yl)-N-(thiazol-2-yl)benzamide]	≥ 1000			≥ 1	≥ 1	≥ 1000	< 10				
COC/C=C/C(=O)N1CCC[C@H]1c1nc(-c2ccc(C(=O)Nc3ccccn3)c(OC)c2)c2c(N)nccn12 [Example 103, (S,E)-4-(8-amino-3-(1-(4-methoxybut-2-enoyl)pyrrolidin-2-yl)imidazo[1,5-a]pyrazin-1-yl)-2-methoxy-N-(pyridin-2-yl)benzamide]	≥ 1000	10 to 100	<100	≥ 1	≥ 1	≥ 1000					
Nc1nccn2c([C@@H]3CCCN3C(=O)/C=C/c3ccccc3)nc(-c3ccc(C(=O)Nc4ccccn4)cc3)c12 [Example 104, (S,E)-4-(8-amino-3-(1-cinnamoylpyrrolidin-2-yl)imidazo[1,5-a]pyrazin-1-yl)-N-(pyridin-2-yl)benzamide]	≥ 1000	100 to 1000			≥ 1	≥ 1000		<1000	0.1 to 1	<1	
CC#CC(=O)N1CCCC[C@H]1c1nc(-c2ccc(C(=O)Nc3cc(CCC)ccn3)c(OC)c2)c2c(N)nccn12 [Example 110, (S)-4-(8-amino-3-(1-but-2-ynoylpiperidin-2-yl)imidazo[1,5-a]pyrazin-1-yl)-2-methoxy-N-(4-propylpyridin-2-yl)benzamide]	≥ 1000			≥ 1	≥ 1	≥ 1000	< 10				
CC#CC(=O)NCc1nc(-c2ccc(C(=O)Nc3ccccn3)cc2)c2c(N)nccn12 [Example 112, 4-(8-amino-3-(but-2-ynamidomethyl)imidazo[1,5-a]pyrazin-1-yl)-N-(pyridin-2-yl)benzamide]	≥ 1000	10 to 100	<100	≥ 1	≥ 1	≥ 1000					
CC#CC(=O)N(C)[C@@H](C)c1nc(-c2ccc(C(=O)Nc3cc(CCC)ccn3)cc2)c2c(N)nccn12 [Example 113, (S)-4-(8-amino-3-(1-(N-methylbut-2-ynamido)ethyl)imidazo[1,5-a]pyrazin-1-yl)-N-(4-propylpyridin-2-yl)benzamide]	≥ 1000	10 to 100	<100	≥ 1	≥ 1	≥ 1000					
CCCc1ccnc(NC(=O)c2ccc(-c3nc([C@@H]4CCCCN4C(=O)/C=C/COC)n4ccnc(N)c34)cc2F)c1 [Example 114, (S,E)-4-(8-amino-3-(1-(4-methoxybut-2-enoyl)piperidin-2-yl)imidazo[1,5-a]pyrazin-1-yl)-2-fluoro-N-(4-propylpyridin-2-yl)benzamide]	≥ 1000	10 to 100	<100	≥ 1	≥ 1	≥ 1000					
CC#CC(=O)N1CCCC[C@H]1c1nc(-c2ccc(C(=O)Nc3ncc(CC)s3)cc2)c2c(N)nccn12 [Example 116, (S)-4-(8-amino-3-(1-but-2-ynoylpiperidin-2-yl)imidazo[1,5-a]pyrazin-1-yl)-N-(5-ethylthiazol-2-yl)benzamide]	≥ 1000			≥ 1	≥ 1	≥ 1000	< 10				
C=CC(=O)N1CCCC[C@H]1c1nc(-c2ccc(C(=O)Nc3ncc(CC)s3)cc2)c2c(N)nccn12 [Example 117, (S)-4-(3-(1-acryloylpiperidin-2-yl)-8-aminoimidazo[1,5-a]pyrazin-1-yl)-N-(5-ethylthiazol-2-yl)benzamide]	≥ 1000			≥ 1	≥ 1	≥ 1000	< 10				

The remaining lines, values ahead:

EC50 [1] [nM]	EC50 [2] [nM]	EC50 Btk activity values [2, 6] [nM]	EC50 [3, 7] [µM]	EC50 [4, 8] [µM]	EC50 [5] [nM]	EC50 [2, 9] [nM]	EC50 Btk activity values ([2]; IMAP, 60 min pre-incubation, 5 μM ATP, bin bound in μM) [nM]	EC50 [3] [µM]	EC50 Lck activity values ([3]; IMAP, 60 min pre-incubation, 6 μM ATP, bin bound in μM) [µM]	EC50 ([4]; EC50 Lyn activity values, 60 min pre-incubation, 2 μM ATP, bin bound in μM) [µM]	Compound
≥ 1000			≥ 1	≥ 1	≥ 1000	< 10					CC#CC(=O)N1CCC[C@H]1c1nc(-c2ccc(C(=O)Nc3cc(C(C)C)ccn3)cc2)c2c(N)nccn12 [Example 102, (S)-4-(8-amino-3-(1-but-2-ynoylpyrrolidin-2-yl)imidazo[1,5-a]pyrazin-1-yl)-N-(4-isopropylpyridin-2-yl)benzamide]
≥ 1000	10 to 100	<100	≥ 1	≥ 1	≥ 1000						C[C@H](NC(=O)c1ccnc(Cl)n1)c1nc(-c2ccc(C(=O)Nc3ccccn3)cc2)c2c(N)nccn12 [Example 105, (S)-N-(1-(8-amino-1-(4-(pyridin-2-ylcarbamoyl)phenyl)imidazo[1,5-a]pyrazin-3-yl)ethyl)-2-chloropyrimidine-4-carboxamide]
≥ 1000	10 to 100	<100	≥ 1	≥ 1	≥ 1000						CC#CC(=O)N1CCC[C@H]1c1nc(-c2ccc(C(=O)Nc3cc(F)ccn3)cc2)c2c(N)nccn12 [Example 106, (S)-4-(8-amino-3-(1-but-2-ynoylpyrrolidin-2-yl)imidazo[1,5-a]pyrazin-1-yl)-N-(4-fluoropyridin-2-yl)benzamide]
≥ 1000			≥ 1	≥ 1	≥ 1000	< 10					CCCc1ccnc(NC(=O)c2ccc(-c3nc([C@@H]4CCCCN4C(=O)c4ccnc(Cl)n4)n4ccnc(N)c34)cc2)c1 [Example 107, (S)-4-(8-amino-3-(1-(2-chloropyrimidine-4-carbonyl)piperidin-2-yl)imidazo[1,5-a]pyrazin-1-yl)-N-(4-propylpyridin-2-yl)benzamide]
≥ 1000			≥ 1		≥ 1000	< 10				≥ 1	COC/C=C/C(=O)N1CCCC[C@H]1c1nc(-c2ccc(C(=O)Nc3cc(C(F)(F)F)ccn3)cc2)c2c(N)nccn12 [Example 108, (S,E)-4-(8-amino-3-(1-(4-methoxybut-2-enoyl)piperidin-2-yl)imidazo[1,5-a]pyrazin-1-yl)-N-(4-(trifluoromethyl)pyridin-2-yl)benzamide]
≥ 1000			≥ 1	≥ 1	≥ 1000	< 10					C=CC(=O)N1CCCC[C@H]1c1nc(-c2ccc(C(=O)Nc3cc(C(F)(F)F)ccn3)cc2)c2c(N)nccn12 [Example 109, (S)-4-(3-(1-acryloylpiperidin-2-yl)-8-aminoimidazo[1,5-a]pyrazin-1-yl)-N-(4-(trifluoromethyl)pyridin-2-yl)benzamide]
≥ 1000			≥ 1	≥ 1	≥ 1000	< 10					Nc1nccn2c([C@@H]3CCCCN3C(=O)c3ccnc(Cl)n3)nc(-c3ccc(C(=O)Nc4cc(C(F)(F)F)ccn4)cc3)c12 [Example 115, (S)-4-(8-amino-3-(1-(2-chloropyrimidine-4-carbonyl)piperidin-2-yl)imidazo[1,5-a]pyrazin-1-yl)-N-(4-(trifluoromethyl)pyridin-2-yl)benzamide]
≥ 1000			≥ 1	≥ 1	≥ 1000	< 10					CCc1cnc(NC(=O)c2ccc(-c3nc([C@@H]4CCCCN4C(=O)c4ccnc(Cl)n4)n4ccnc(N)c34)cc2)s1 [Example 118, (S)-4-(8-amino-3-(1-(2-chloropyrimidine-4-carbonyl)piperidin-2-yl)imidazo[1,5-a]pyrazin-1-yl)-N-(5-ethylthiazol-2-yl)benzamide]
≥ 1000	10 to 100	<100	≥ 1	≥ 1	≥ 1000						Nc1nccn2c([C@@H]3CCCN3C(=O)c3ccnc(Cl)n3)nc(-c3ccc(C(=O)Nc4cc(C(F)(F)F)ccn4)cc3)c12 [Example 119, (S)-4-(8-amino-3-(1-(2-chloropyrimidine-4-carbonyl)pyrrolidin-2-yl)imidazo[1,5-a]pyrazin-1-yl)-N-(4-(trifluoromethyl)pyridin-2-yl)benzamide]
